In the NIST ThermoML archive (doi:10.1021/acs.jced.5b00985):
Numbers after ± are expanded uncertainties.

Assay: mn = molality of the nth substance listed, in mol/kg
Conditions: 100.8 kPa, Liquid, Pycnometric method

mass density (313.15 K, m1 = 0.0946): 1002.1 ± 2 kg/m3
mass density (343.15 K, m1 = 0.2563): 1001.1 ± 2.3 kg/m3
mass density (343.15 K, m1 = 0.2612): 1001.3 ± 2.1 kg/m3
SMILES: [NH4+].[O]=[V](=[O])[O-] [ammonium vanadate] + O
